Laboratory results taken from publication PMC6165432 (International Journal of Molecular Sciences, 2018).
Like-named read-outs stand apart in the source and are kept apart here.

What was measured:
[1] = molecular target: T1, human AhR (hAhR) (Homo sapiens, UniProt P35869); assay: AhR-responsive luciferase reporter gene assay in stably transfected human HG2L6.1c1 hepatoma cells; settings: for maximal level of reporter gene induction: relative to TCDD
T1 sequence (P35869 11-848): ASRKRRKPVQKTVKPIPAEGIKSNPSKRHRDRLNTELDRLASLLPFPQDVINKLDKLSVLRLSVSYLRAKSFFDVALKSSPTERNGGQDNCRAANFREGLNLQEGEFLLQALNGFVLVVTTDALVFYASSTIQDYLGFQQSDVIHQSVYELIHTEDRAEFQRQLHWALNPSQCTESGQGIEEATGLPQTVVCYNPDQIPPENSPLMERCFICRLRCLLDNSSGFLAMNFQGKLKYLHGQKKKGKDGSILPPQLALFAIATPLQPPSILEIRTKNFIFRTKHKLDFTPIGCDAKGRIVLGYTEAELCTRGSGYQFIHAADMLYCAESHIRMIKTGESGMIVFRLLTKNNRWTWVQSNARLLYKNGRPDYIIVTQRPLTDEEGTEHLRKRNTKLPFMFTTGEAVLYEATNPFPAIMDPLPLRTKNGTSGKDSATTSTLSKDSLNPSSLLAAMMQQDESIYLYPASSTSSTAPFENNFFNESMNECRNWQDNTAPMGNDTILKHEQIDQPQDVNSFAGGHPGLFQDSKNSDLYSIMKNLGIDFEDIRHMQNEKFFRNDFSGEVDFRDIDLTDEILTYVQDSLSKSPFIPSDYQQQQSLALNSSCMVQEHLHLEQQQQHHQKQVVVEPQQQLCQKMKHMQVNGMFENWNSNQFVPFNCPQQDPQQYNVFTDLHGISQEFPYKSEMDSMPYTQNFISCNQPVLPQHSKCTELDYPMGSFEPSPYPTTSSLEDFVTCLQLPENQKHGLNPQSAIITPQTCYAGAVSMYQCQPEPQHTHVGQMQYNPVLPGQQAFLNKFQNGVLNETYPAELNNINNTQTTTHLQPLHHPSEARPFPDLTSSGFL
Protocol: (§2) AhR-dependent gene transcription was determined in (A) human HG2L6.1c.1 and (B) mouse H1L6.1c.3 hepatoma cell lines that contain a stably transfected AhR-responsive luciferase reporter gene. […] Luciferase activity (Relative Light Units (RLUs)) was normalized to the maximal induction observed with TCDD in each cell line. Values represent the mean ± SD of nine independent analyses.
(§3) Recombinant mouse (H1L6.1c3) and human (HG2L6.1c1) hepatoma cells containing a stably integrated AhR-responsive luciferase reporter gene plasmid (pGudLuc6.1) were plated (750,000 cells/well) in 96-well plates and incubated at 37 °C for 24 h prior to chemical treatment. Cells were incubated with DMSO (1% (v/v)) or the indicated concentration of test chemical in DMSO for 4 h, followed by visual inspection of the cells for toxicity, washing of the cells with phosphate-buffered saline (PBS), addition of 50 µL of passive lysis buffer (Promega) and lysis of cells for 20 min at room temperature with shaking [50]. Luciferase activity in each well was measured (integrating luminescence over 10 s with a 10 s delay) in an Orion microplate luminometer (Berthold Detection Systems, Bad Wildbad, Germany) following automatic injection of Promega stabilized luciferase reagent.
(§4) Analysis of statistical significance of differences between experimental values was conducted using Two-Way ANOVA and EC50s and IC50s were calculated using nonlinear regression (three parameter) analysis in GraphPad Prism v.7 (La Jolla, CA, USA).

[2] = molecular target: T2, mouse AhR (mAhR) (Mus musculus, UniProt P30561); assay: AhR-responsive luciferase reporter gene assay in stably transfected mouse H1L6.1c3 hepatoma cells; format: cell-based
T2 sequence (P30561 10-805): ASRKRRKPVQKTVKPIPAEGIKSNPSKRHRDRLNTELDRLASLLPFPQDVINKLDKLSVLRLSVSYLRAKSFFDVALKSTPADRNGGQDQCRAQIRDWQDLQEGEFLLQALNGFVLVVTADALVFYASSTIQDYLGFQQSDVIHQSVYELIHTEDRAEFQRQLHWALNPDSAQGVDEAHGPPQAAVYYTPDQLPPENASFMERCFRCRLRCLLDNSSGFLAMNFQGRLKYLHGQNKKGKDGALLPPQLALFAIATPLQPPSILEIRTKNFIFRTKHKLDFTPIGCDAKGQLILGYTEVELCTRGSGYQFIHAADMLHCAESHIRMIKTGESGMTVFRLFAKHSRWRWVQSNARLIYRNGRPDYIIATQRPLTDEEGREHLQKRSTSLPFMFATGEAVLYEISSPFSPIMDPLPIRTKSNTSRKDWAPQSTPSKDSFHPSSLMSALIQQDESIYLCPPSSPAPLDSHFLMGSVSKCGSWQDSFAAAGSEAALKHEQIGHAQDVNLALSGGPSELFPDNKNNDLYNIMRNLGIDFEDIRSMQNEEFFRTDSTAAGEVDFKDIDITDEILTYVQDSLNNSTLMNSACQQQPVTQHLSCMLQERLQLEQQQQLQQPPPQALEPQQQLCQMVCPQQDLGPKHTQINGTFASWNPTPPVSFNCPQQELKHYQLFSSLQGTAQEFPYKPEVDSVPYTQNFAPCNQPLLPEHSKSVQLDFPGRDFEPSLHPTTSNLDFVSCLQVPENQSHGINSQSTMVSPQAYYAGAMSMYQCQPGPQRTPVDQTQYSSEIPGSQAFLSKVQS
Protocol: as §2, §3, §4

[3] = molecular target: T3, mutant hAhR Y332H (Homo sapiens, UniProt P35869, Y332H); assay: AhR DNA binding (gel retardation) assay, Y332H hAhR; format: biochemical
T3 construct: made in house; host or cells: in vitro transcription/translation, rabbit reticulocyte lysate
Protocol: (§5) An aliquot of each incubation was mixed with [^32P]-labeled double-stranded oligonucleotide containing the AhR-ARNT DRE3 DNA binding site (a dioxin responsive element from the upstream region of the murine Cyp1a1 gene [9] and protein-DNA complexes resolved by gel retardation analysis as previously described [48, 49]. Gels were visualized using a FLA9000 Fujifilm Imager and protein-DNA complexes quantitated with Fujifilm MultiGauge software (FujiFilm Corporation, Valhalla, NY, USA).
as §4
(§6) In vitro synthesized mutant mAhRs were incubated in the presence of
(§7) 45 nM-10,000 nM) for 2 h and DNA binding analyzed by the gel retardation assay as described in
(§8) 46 Materials and Methods. Values represent the mean ± SD of nine individual replicate analyses and
(§9) 47 EC50 values determined by nonlinear regression (three-parameter) analysis and graphical depictions

[4] = molecular target: T4, mAhR (Mus musculus, UniProt P30561, M324I); assay: biochemical; design: made in house; host or cells: in vitro transcription/translation, rabbit reticulocyte lysate (Promega TNT)
Protocol: (§10) (A) The amount of inducible protein-DNA complex at each chemical concentration was quantitated and values normalized to the amount of complex formed with a maximal activating concentration of TCDD (20 nM). […] Values represent the mean ± SD of nine individual replicate analyses.
as §5, §4

[5] = molecular target: T5, mutant mAhR H351N (Mus musculus, UniProt P30561, H351N/M324I); assay: AhR DNA binding (gel retardation) assay, H351N mAhR; format: biochemical
T5 construct: made in house; host or cells: in vitro transcription/translation, rabbit reticulocyte lysate
Protocol: as §5, §4, §6, §7, §8, §9

[6] = molecular target: T6, mutant mAhR S352N (Mus musculus, UniProt P30561, M324I/S352N); assay: AhR DNA binding (gel retardation) assay, S352N mAhR; format: biochemical
T6 construct: made in house; host or cells: in vitro transcription/translation, rabbit reticulocyte lysate
Protocol: as §5, §4, §6, §7, §8, §9

[7] = tested on: mAhR A375V; settings: A375V versus high-affinity mAhR ref 27, 28; cited from earlier work
[8] = tested on: mAhR A375V; settings: A375V versus high-affinity mAhR ref 27, 28; cited from earlier work; remark: listed apart in the source
[9] = molecular target: T7, mutant mAhR A349T (Mus musculus, UniProt P30561, A349T/M324I); assay: biochemical; design: made in house; host or cells: in vitro transcription/translation, rabbit reticulocyte lysate
Protocol: as §5, §4

[10] = molecular target: T8, mutant hAhR T355A (Homo sapiens, UniProt P35869, T355A); assay: AhR DNA binding (gel retardation) assay, T355A hAhR; format: biochemical
T8 construct: made in house; host or cells: in vitro transcription/translation, rabbit reticulocyte lysate
Protocol: as §5, §4, §6, §7, §8, §9

[11] = molecular target: T9, mutant hAhR V381A (Homo sapiens, UniProt P35869, V381A); assay: AhR DNA binding (gel retardation) assay, V381A hAhR; format: biochemical
T9 construct: made in house; host or cells: in vitro transcription/translation, rabbit reticulocyte lysate
Protocol: as §5, §4, §6, §7, §8, §9

[12] = molecular target: T10, mutant mAhR Q299R (Mus musculus, UniProt P30561, M324I/Q299R); assay: AhR DNA binding (gel retardation) assay, Q299R mAhR; format: biochemical
T10 construct: made in house; host or cells: in vitro transcription/translation, rabbit reticulocyte lysate
Protocol: as §5, §4

[13] = molecular target: T11, mutant mAhR I301V (Mus musculus, UniProt P30561, I301V/M324I); assay: AhR DNA binding (gel retardation) assay, I301V mAhR; format: biochemical
T11 construct: made in house; host or cells: in vitro transcription/translation, rabbit reticulocyte lysate
Protocol: as §5, §4

[14] = molecular target: T12, mutant mAhR T343I (Mus musculus, UniProt P30561, M324I/T343I); assay: AhR DNA binding (gel retardation) assay, T343I mAhR; format: biochemical
T12 construct: made in house; host or cells: in vitro transcription/translation, rabbit reticulocyte lysate
Protocol: as §5, §4

[15] = molecular target: T13, mutant mAhR H326Y (Mus musculus, UniProt P30561, H326Y/M324I); assay: AhR DNA binding (gel retardation) assay, H326Y mAhR; format: biochemical
T13 construct: made in house; host or cells: in vitro transcription/translation, rabbit reticulocyte lysate
Protocol: as §5, §4

[16] = molecular target: T14, mutant mAhR A375V (Mus musculus, UniProt P30561, A375V/M324I); assay: biochemical
T14 construct: made in house; host or cells: in vitro transcription/translation, rabbit reticulocyte lysate
Protocol: as §5, §4

[17] = molecular target: T15, mutant mAhR R355T (Mus musculus, UniProt P30561, M324I/R355T); assay: AhR DNA binding (gel retardation) assay, R355T mAhR; format: biochemical
T15 construct: made in house; host or cells: in vitro transcription/translation, rabbit reticulocyte lysate
Protocol: as §5, §4, §6, §7, §8, §9

[18] = tested on: T16, mutant A349T mAhR; assay: Transient transfection luciferase reporter assay in COS-1 cells, A349T mAhR; format: cell-based, mouse; settings: COS-1 cells cotransfected with A349T mAhR; TCDD 10 nM, IR 1 µM, 18–20 h
T16 construct: contains a full-length mAhR cDNA in which the mouse PASB LBD was replaced; expressed in transfected cells; host or cells: COS-1
Protocol: (§11) Cells were lysed, and lysates were analyzed for firefly luciferase activity. […] Luciferase activity (relative light units; RLU) was measured and corrected for background (DMSO) and normalized to mAhR TCDD levels. Values represent the mean ± SD of nine individual replicate analyses.
(§12) COS-1 cells were plated at a density of 75,000 cells/well and allowed to attach overnight in a 24-well plate. Cells were transiently transfected (per well) with the following amounts per well: 2 µL Lipofectamine 2000 (Invitrogen, Carlsbad, CA, USA), 20 ng wild-type (mβAhR/pcDNA3) or mutant AhR expression plasmids (in pcDNA3.1), 20 ng of mβARNT/pcDNA3 or pcDNA3.1(+) and 200 ng pGudLuc6.1 [17].

[19] = molecular target: T17, mutant mAhR L300I (Mus musculus, UniProt P30561, L300I/M324I); assay: AhR DNA binding (gel retardation) assay, L300I mAhR; format: biochemical
T17 construct: made in house; host or cells: in vitro transcription/translation, rabbit reticulocyte lysate
Protocol: as §5, §4

[20] = molecular target: T18, mutant mAhR V307A (Mus musculus, UniProt P30561, M324I/V307A); assay: AhR DNA binding (gel retardation) assay, V307A mAhR; format: biochemical
T18 construct: made in house; host or cells: in vitro transcription/translation, rabbit reticulocyte lysate
Protocol: as §5, §4

[21] = tested on: T19, wild-type mAhR; assay: Transient transfection luciferase reporter assay in COS-1 cells, wild-type mAhR; format: cell-based, mouse; settings: COS-1 cells cotransfected with wild-type mAhR; TCDD 10 nM, IR 1 µM, 18–20 h
T19 construct: contains a full-length mAhR cDNA in which the mouse PASB LBD was replaced; expressed in transfected cells; host or cells: COS-1
Protocol: as §11, §12

[22] = molecular target: T20, hAhR (Homo sapiens, UniProt P35869); assay: biochemical; design: only occur within the full length hAhR and not in the mAhR-hAhRLBD chimera; made in house; host or cells: in vitro transcription/translation, rabbit reticulocyte lysate
Target sequence in this assay (P27540 whole entry partner, one chain of several): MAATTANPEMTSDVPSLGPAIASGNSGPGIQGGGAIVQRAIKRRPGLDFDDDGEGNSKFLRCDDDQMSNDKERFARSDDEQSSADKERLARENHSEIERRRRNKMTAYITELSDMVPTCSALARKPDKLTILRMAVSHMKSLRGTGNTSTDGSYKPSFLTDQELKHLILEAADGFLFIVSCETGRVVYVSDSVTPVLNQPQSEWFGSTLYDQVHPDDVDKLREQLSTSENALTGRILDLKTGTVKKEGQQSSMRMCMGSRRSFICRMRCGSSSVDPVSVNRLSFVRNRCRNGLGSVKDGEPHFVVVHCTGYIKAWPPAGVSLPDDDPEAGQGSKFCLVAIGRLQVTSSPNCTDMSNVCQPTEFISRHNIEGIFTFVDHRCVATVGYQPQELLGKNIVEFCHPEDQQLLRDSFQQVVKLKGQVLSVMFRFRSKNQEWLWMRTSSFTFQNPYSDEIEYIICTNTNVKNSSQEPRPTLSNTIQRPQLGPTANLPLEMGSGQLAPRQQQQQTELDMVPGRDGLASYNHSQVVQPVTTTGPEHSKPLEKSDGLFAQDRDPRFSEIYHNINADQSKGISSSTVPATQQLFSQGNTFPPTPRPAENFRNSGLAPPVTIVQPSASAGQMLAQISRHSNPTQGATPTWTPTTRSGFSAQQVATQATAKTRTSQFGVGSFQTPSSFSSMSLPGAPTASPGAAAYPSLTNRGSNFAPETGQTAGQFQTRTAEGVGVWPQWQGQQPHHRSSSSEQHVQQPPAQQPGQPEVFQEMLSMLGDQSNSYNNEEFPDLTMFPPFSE
Protocol: as §10, §5, §4

[23] = molecular target: T21, mutant mAhR I324M (Mus musculus, UniProt P30561); assay: AhR DNA binding (gel retardation) assay, I324M mAhR; format: biochemical
T21 construct: made in house; host or cells: in vitro transcription/translation, rabbit reticulocyte lysate
Protocol: as §5, §4

[24] = molecular target: T4, mAhR; design: host or cells: rabbit reticulocyte lysate, coupled transcription/translation; settings: in vitro synthesized AhRs, specific binding
Protocol: (§1) [^3H]TCDD specific binding was determined by subtracting the amount of [^3H]TCDD bound to unprogrammed lysate (nonspecific binding) from the total amount of [^3H]TCDD binding to lysate containing in vitro expressed AhR.
Target sequence in this assay (P30561 10-805 M324I limits assumed): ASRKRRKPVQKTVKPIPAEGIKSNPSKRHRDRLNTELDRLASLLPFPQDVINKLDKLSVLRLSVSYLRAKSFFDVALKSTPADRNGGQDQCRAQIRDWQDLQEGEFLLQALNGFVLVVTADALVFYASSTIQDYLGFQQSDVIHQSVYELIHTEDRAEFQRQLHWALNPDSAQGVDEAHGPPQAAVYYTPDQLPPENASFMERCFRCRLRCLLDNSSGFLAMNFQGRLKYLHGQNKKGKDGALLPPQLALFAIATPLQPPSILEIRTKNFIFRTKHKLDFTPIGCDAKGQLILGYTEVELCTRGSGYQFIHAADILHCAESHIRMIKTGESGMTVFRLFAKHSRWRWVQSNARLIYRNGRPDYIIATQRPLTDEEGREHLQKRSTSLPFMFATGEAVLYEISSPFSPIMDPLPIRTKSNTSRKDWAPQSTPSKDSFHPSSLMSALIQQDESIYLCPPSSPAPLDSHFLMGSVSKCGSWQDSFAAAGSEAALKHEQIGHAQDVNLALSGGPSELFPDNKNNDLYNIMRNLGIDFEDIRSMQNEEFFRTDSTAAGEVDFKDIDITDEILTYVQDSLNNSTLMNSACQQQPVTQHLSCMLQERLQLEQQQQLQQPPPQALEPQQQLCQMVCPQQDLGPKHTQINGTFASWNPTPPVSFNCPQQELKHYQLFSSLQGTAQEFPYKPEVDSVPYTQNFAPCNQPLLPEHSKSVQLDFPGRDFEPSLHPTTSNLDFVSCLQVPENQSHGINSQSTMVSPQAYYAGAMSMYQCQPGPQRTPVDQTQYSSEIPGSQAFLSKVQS

[25] = molecular target: T7, mutant mAhR A349T; design: host or cells: rabbit reticulocyte lysate, coupled transcription/translation; settings: specific binding
Protocol: as §1
Target sequence in this assay (P30561 10-805 M324I/A349T limits assumed): as the sequence (P30561 10-805 M324I limits assumed) above, with A340T counted along it

[26] = molecular target: T20, hAhR; settings: COS-1 cells cotransfected with hAhR; TCDD 10 nM, IR 1 µM, 18–20 h
Protocol: as §11, §12

[27] = tested on: AhR; settings: mouse hepatoma cells ref 23; cited from earlier work
[28] = tested on: AhR; settings: human hepatoma cells ref 23; cited from earlier work
[29] = molecular target: mAhR-hAhRLBD (Mus musculus; Homo sapiens, UniProt P30561+P35869); settings: COS-1 cells cotransfected with mAhR-hAhRLBD; TCDD 10 nM, IR 1 µM, 18–20 h
Protocol: as §11, §12

[30] = mouse H1L6.1c3 hepatoma cells, 4 h, mean ± SD of nine analyses, read-out: EC50 to stimulate luciferase reporter gene expression, Mouse

T8 sequence (P35869 11-848 T355A): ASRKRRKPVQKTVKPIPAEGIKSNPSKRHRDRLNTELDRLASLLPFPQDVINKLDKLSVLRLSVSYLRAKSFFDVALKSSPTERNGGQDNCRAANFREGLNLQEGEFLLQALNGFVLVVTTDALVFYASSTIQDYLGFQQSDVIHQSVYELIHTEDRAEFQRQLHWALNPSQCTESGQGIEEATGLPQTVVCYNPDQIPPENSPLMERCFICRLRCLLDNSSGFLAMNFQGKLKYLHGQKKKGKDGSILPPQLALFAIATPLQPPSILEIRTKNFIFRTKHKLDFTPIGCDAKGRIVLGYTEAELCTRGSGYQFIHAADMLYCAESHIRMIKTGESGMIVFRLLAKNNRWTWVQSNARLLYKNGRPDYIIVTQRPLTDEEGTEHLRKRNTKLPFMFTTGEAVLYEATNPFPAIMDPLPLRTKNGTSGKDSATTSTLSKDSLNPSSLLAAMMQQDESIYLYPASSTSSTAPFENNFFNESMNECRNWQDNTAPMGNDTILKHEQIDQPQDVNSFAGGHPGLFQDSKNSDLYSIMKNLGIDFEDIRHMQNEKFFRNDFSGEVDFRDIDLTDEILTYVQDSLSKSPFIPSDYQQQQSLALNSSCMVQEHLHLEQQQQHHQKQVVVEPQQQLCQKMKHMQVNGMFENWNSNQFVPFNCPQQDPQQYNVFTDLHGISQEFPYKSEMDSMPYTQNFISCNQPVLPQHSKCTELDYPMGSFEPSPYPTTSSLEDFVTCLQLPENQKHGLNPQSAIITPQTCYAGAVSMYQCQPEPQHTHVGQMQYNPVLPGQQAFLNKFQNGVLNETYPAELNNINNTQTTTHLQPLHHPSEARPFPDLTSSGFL
T8 sequence (P27540 whole entry partner): as the sequence (P27540 whole entry partner, one chain of several) above
T15 sequence (P30561 10-805 M324I/R355T limits assumed): as the sequence (P30561 10-805 M324I limits assumed) above, with R346T counted along it
T15 sequence (P53762 whole entry partner): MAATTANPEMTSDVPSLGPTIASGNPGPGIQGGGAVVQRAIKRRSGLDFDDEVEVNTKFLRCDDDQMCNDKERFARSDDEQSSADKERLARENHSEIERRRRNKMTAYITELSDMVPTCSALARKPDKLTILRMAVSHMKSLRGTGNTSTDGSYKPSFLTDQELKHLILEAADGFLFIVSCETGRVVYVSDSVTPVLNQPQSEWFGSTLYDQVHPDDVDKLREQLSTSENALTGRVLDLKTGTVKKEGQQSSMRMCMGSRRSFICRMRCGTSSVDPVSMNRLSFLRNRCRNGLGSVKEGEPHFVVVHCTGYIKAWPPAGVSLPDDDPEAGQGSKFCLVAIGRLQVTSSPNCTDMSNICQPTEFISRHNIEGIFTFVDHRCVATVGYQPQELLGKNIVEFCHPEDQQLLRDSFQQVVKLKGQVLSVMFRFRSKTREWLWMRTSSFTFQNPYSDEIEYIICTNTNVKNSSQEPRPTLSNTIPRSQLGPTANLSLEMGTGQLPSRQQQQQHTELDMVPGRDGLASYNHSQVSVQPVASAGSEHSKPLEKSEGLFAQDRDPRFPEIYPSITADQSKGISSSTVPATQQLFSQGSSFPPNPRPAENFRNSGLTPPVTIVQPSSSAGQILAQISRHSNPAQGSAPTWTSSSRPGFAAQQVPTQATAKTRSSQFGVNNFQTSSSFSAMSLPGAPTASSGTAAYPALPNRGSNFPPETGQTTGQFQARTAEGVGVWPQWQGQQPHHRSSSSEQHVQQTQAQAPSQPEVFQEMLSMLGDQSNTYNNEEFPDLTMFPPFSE
T17 sequence (P30561 10-805 L300I/M324I limits assumed): as the sequence (P30561 10-805 M324I limits assumed) above, with L291I counted along it
T17 sequence (P53762 whole entry partner): as the sequence (P53762 whole entry partner) above

## COC(=O)c1csc(C(=O)c2c[nH]c3ccccc23)n1 [ITE, 2-(1H-Indol-3-ylcarbonyl)-4-thiazolecarboxylic acid methyl ester]
[1]
  EC50: 184 ± 42.1 nM
[2]; [30]
  EC50 at 4 h: 22.3 ± 3.53 nM

## Cc1ccc2cc3c(ccc4ccccc43)c3c2c1CC3 [3-MC, 3-Methylcholanthrene]
[1]
  EC50: 14.6 ± 3.51 nM
[1]; human HG2L6.1c1 cells
  maximal level of reporter gene induction: maximal induction was not observed
[2]; [30]
  EC50: 1.49 ± 0.01 nM

## O=c1cc(-c2ccccc2)oc2ccc3ccccc3c12 [BNF, β-naphthoflavone]
[1]; human HG2L6.1c1 cells
  maximal level of reporter gene induction: maximal induction was not observed
[2]; [30]
  EC50: 1.84 ± 1.14 nM

## Clc1cc2c(cc1Cl)Oc1cc(Cl)c(Cl)cc1O2 [TCDD, 2,3,7,8-tetrachlorodibenzo-p-dioxin]
[3]
  EC50: 0.59 ± 0.6 nM
[4]
  EC50: 2.48 ± 0.54 nM
[5]
  EC50: 0.73 ± 0.04 nM
[6]
  EC50: 4.34 ± 0.26 nM
[7]
  lower activation potency of the mAhR after mutation A375V: ~ 10 fold
[8]
  lower affinity of the mAhR after mutation A375V: ~ 10 fold
[9]
  EC50: 3.86 ± 1.06 nM
[10]
  EC50: 2.32 ± 0.82 nM
[11]
  EC50: 2.99 ± 0.65 nM
[12]
  EC50: 2.29 ± 0.12 nM
[13]
  EC50: 2.09 ± 0.01 nM
[14]
  EC50: 1.79 ± 0.12 nM
[15]
  EC50: 0.62 ± 0.52 nM
[16]
  EC50: 5.25 ± 0.56 nM
[17]
  EC50: 0.94 ± 0.06 nM
[1]
  EC50: 0.26 ± 0.07 nM
[18]
  maximal induction compared with wild-type mAhR: significantly repressed compared to wild-type mAhR
[19]
  EC50: 1.42 ± 0.61 nM
[2]; mouse
  EC50 at 4 h: 0.027 ± 0.01 nM
[20]
  EC50: 4.25 ± 0.12 nM
[21]
  induction of luciferase activity, TCDD versus IR: comparable to IR
[22]
  EC50: 2.46 ± 0.9 nM
[23]
  EC50: 2.92 ± 0.14 nM

## Clc1cc2oc3cc(Cl)c(Cl)cc3c2cc1Cl [TCDF, 2,3,7,8-tetrachlorodibenzofuran]
[1]
  EC50: 4.1 ± 0.79 nM
[2]; [30]
  EC50: 1.25 ± 0.65 nM

## O=Cc1c2[nH]c3ccccc3c2cc2[nH]c3ccccc3c12 [FICZ, 6-formylindolo[3,2-b]carbazole]
[2]; [30]
  EC50: 3.71 ± 0.85 nM

## Clc1cc2c(cc1Cl)Oc1cc(Cl)c(Cl)cc1O2 [[^3H]TCDD]
[24]
  more [3H]TCDD bound to wild-type mAhR than to the mAhR-hAhRLBD chimera: ~ 10%
[25]
  [3H]TCDD binding to A349T mutant mAhR compared with wild-type mAhR: not significantly different from that of the wild-type mAhR

## O=C1Nc2ccccc2/C1=C1/Nc2ccccc2C1=O [IR, indirubin]
[26]
  induction of luciferase activity, IR versus TCDD: significantly more efficacious inducer than TCDD
[27]
  less potent than TCDD as inducer of AhR-dependent gene expression: ~ 10 fold
[28]
  greater potency than TCDD as inducer of AhR-dependent gene expression: 10 fold
[1]; human HG2L6.1c1 cells
  more potent than TCDD, reporter gene induction: ~ 7 fold
[18]
  induction of luciferase activity, IR versus TCDD: significantly more efficacious inducer than TCDD
  maximal induction compared with wild-type mAhR: significantly increased above that of wild-type mAhR
[2]; mouse
  EC50: 15.6 ± 3.52 nM
[29]
  induction of luciferase activity, IR versus TCDD: significantly more efficacious inducer than TCDD
